The nature of data set [1]: ASSAY (III) ThT fibrillation assay for physical stability. It counts as physicochemical. An outline of the steps: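 Formulations with 1 μM ThT, pH adjusted as required, incubated at 37 °C with 960 rpm orbital shaking; fluorescence (ex 444/em 485 nm) read every 20 min. Fibrillation reported as mean ThT fluorescence ± SD of 4–8 replicates at time points; polypeptide concentration measured by reverse-phase HPLC before and after, post-centrifugation.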

Data set [2] in a line: ASSAY (IV) determination of solubility. The format is physicochemical. An outline of the steps:
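Dissolve polypeptide in water ([…] stock); combine 1:1 with each 100 mM buffer (glycylglycine pH 3.0/4.0/5.0; bistrispropane pH 6.0/6.5/7.0/7.5/8.0); hold 18 hours at room temperature; centrifuge; quantify polypeptide by UPLC.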

Where [3] appears, read: bistrispropane buffer, pH 6.5, read-out: Solubility pH 6.5 Concentration.
The mark [4] stands for this setting: bistrispropane buffer, pH 7.5, read-out: Solubility pH 7.5 Concentration.
Where [5] appears, read: bistrispropane buffer, pH 6.0, read-out: Solubility pH 6.0 Concentration.
Where [6] appears, read: bistrispropane buffer, pH 7.0, read-out: Solubility pH 7.0 Concentration.
[7] abbreviates: bistrispropane buffer, pH 8.0, read-out: Solubility pH 8.0 Concentration.
Where [8] appears, read: glycylglycine buffer, pH 3.0, read-out: Solubility pH 3.0 Concentration.
Where [9] appears, read: glycylglycine buffer, pH 4.0, read-out: Solubility pH 4.0 Concentration.
The mark [10] stands for this setting: glycylglycine buffer, pH 5.0, read-out: Solubility pH 5.0 Concentration.

SMILES strings stand for the structures. Values after ≈ are worked out from the molar mass of the structure shown. Like-named read-outs stand apart in the source and are kept apart here. Numbered stars: 1 amine (or outer) side, 2 acyl side, 3 side chain; on linkers, the order of the positions; unused ones are H or OH. Bridge positions count the residues as written; N and C are the ends. Side chains are listed from the residue outwards. Peptide text beside a SMILES is read from it. * marks the point of attachment. C20 diacid = O=C(O)CCCCCCCCCCCCCCCCCCC(=O)*; γGlu = O=C(O)[C@H](CCC(=O)[*:2])N[*:1]; AEEA = NCCOCCOCC(=O)O

Turning to `CC[C@H](C)[C@H](NC(=O)[C@H](C)NC(=O)CNC(=O)[C@H](Cc1ccccc1)NC(=O)[C@H](CC(N)=O)NC(=O)[C@@H]1CCCN1C(=O)[C@H](CO)NC(=O)[C@H](CO)NC(=O)[C@H](Cc1c[nH]cn1)NC(=O)[C@H](CCCNC(=N)N)NC(=O)[C@H](CC(C)C)NC(=O)[C@H](Cc1ccccc1)NC(=O)[C@H](CC(N)=O)NC(=O)[C@H](C)NC(=O)[C@H](CC(C)C)NC(=O)[C@H](CCCNC(=N)N)NC(=O)[C@H](CCC(N)=O)NC(=O)[C@@H](NC(=O)[C@H](C)NC(=O)[C@@H]1CSSC[C@H](NC(=O)[C@@H](N)CCCCNC(=O)CC[C@H](NC(=O)CCCCCCCCCCCCC(=O)O)C(=O)O)C(=O)N[C@@H](CC(N)=O)C(=O)N[C@@H]([C@@H](C)O)C(=O)N[C@@H](C)C(=O)N[C@@H]([C@@H](C)O)C(=O)N1)[C@@H](C)O)C(=O)N1CCC[C@H]1C(=O)N[C@@H](CO)C(=O)N[C@@H](CO)C(=O)N[C@H](C(=O)N[C@@H](CC(N)=O)C(=O)N[C@H](C(=O)NCC(=O)N[C@@H](Cc1c[nH]cn1)C(=O)N[C@@H](CC(N)=O)C(=O)N[C@H](C(=O)N[C@@H](Cc1ccc(O)cc1)C(N)=O)[C@@H](C)O)C(C)C)[C@@H](C)O` [Example 112], the “ThT pH 4.0 lag time (h)” value in data set [1] amounted to 30 h. The solubility at 18 h in data set [2] (setting [3]), in data set [2] (setting [4]), in data set [2] (setting [5]), in data set [2] (setting [6]), in data set [2] (setting [7]) and in data set [2] (setting [8]) was not below 200 µM in each case. Besides, the solubility at 18 h in data set [2] (setting [9]) and in data set [2] (setting [10]) was not below 200 µM throughout.

Consider `CC[C@H](C)[C@H](NC(=O)[C@H](C)NC(=O)CNC(=O)[C@H](Cc1ccccc1)NC(=O)[C@H](CC(N)=O)NC(=O)[C@@H]1CCCN1C(=O)[C@H](CO)NC(=O)[C@H](CO)NC(=O)[C@H](Cc1c[nH]cn1)NC(=O)[C@H](CCCNC(=N)N)NC(=O)[C@H](CC(C)C)NC(=O)[C@H](Cc1ccccc1)NC(=O)[C@H](CCCCN)NC(=O)[C@H](C)NC(=O)[C@H](CC(C)C)NC(=O)[C@H](CCCNC(=N)N)NC(=O)[C@H](CCC(N)=O)NC(=O)[C@@H](NC(=O)[C@H](C)NC(=O)[C@@H]1CSSC[C@H](NC(=O)[C@@H](N)CCCCNC(=O)COCCOCCNC(=O)CC[C@H](NC(=O)CCCCCCCCCCCCCCCCCCC(=O)O)C(=O)O)C(=O)N[C@@H](CC(N)=O)C(=O)N[C@@H]([C@@H](C)O)C(=O)N[C@@H](C)C(=O)N[C@@H]([C@@H](C)O)C(=O)N1)[C@@H](C)O)C(=O)N1CCC[C@H]1C(=O)N[C@@H](CO)C(=O)N[C@@H](CO)C(=O)N[C@H](C(=O)N1CCC[C@H]1C(=O)N[C@H](C(=O)NCC(=O)N[C@@H](CO)C(=O)N[C@@H](CC(N)=O)C(=O)N[C@H](C(=O)N[C@@H](Cc1ccc(O)cc1)C(N)=O)[C@@H](C)O)C(C)C)[C@@H](C)O` [Example 74] (H-K([AEEA-γGlu-C20 diacid])CNTATCATQRLAKFLRHSSPNFGAIPSSTPVGSNTY-NH2; disulfide 2-7; N-terminus assumed), for which the “ThT pH 4.0 lag time (h)” value in data set [1] is listed as 45 h. The solubility at 18 h is not below 200 µM in data set [2] (pH 3.0, read-out: Solubility pH 3.0 Concentration); not below 200 µM in data set [2] (pH 4.0, read-out: Solubility pH 4.0 Concentration); not below 200 µM in data set [2] (pH 5.0, read-out: Solubility pH 5.0 Concentration); not below 200 µM in data set [2] (pH 6.0, read-out: Solubility pH 6.0 Concentration); not below 200 µM in data set [2] (pH 6.5, read-out: Solubility pH 6.5 Concentration); not below 200 µM in data set [2] (pH 7.0, read-out: Solubility pH 7.0 Concentration). In addition, the solubility at 18 h in data set [2] (pH 7.5, read-out: Solubility pH 7.5 Concentration) was not below 200 µM; in data set [2] (pH 8.0, read-out: Solubility pH 8.0 Concentration), not below 200 µM.

For the compound `CC[C@H](C)[C@H](NC(=O)[C@H](C)NC(=O)CNC(=O)[C@H](Cc1ccccc1)NC(=O)[C@H](CC(N)=O)NC(=O)[C@@H]1CCCN1C(=O)[C@H](CO)NC(=O)[C@H](CO)NC(=O)[C@H](Cc1c[nH]cn1)NC(=O)[C@H](CCCNC(=N)N)NC(=O)[C@H](CC(C)C)NC(=O)[C@H](Cc1ccccc1)NC(=O)[C@H](CCC(=O)O)NC(=O)[C@H](C)NC(=O)[C@H](CC(C)C)NC(=O)[C@H](CCCNC(=N)N)NC(=O)[C@H](CCC(N)=O)NC(=O)[C@@H](NC(=O)[C@H](C)NC(=O)[C@@H]1CSSC[C@H](NC(=O)[C@H](CCCCN)NC(=O)CC[C@H](NC(=O)CCCCCCCCCCCCCCCCCCC(=O)O)C(=O)O)C(=O)N[C@@H](CC(N)=O)C(=O)N[C@@H]([C@@H](C)O)C(=O)N[C@@H](C)C(=O)N[C@@H]([C@@H](C)O)C(=O)N1)[C@@H](C)O)C(=O)N1CCC[C@H]1C(=O)N[C@@H](CO)C(=O)N[C@@H](CO)C(=O)N[C@H](C(=O)N[C@@H](CC(N)=O)C(=O)N[C@H](C(=O)NCC(=O)N[C@@H](CO)C(=O)N[C@@H](CCCNC(=N)N)C(=O)N[C@H](C(=O)N[C@@H](Cc1ccc(O)cc1)C(N)=O)[C@@H](C)O)C(C)C)[C@@H](C)O` [Example 16] ({C20 diacid-γGlu}-KCNTATCATQRLAEFLRHSSPNFGAIPSSTNVGSRTY-NH2; disulfide 2-7), in data set [1], the “ThT pH 4.0 lag time (h)” value is reported as 45 h. Also, the solubility at 18 h in data set [2] (setting [3]), in data set [2] (setting [4]), in data set [2] (setting [5]), in data set [2] (setting [6]), in data set [2] (setting [7]) and in data set [2] (setting [8]) was not below 200 µM in each case. In addition, the solubility at 18 h in data set [2] (setting [9]) and in data set [2] (setting [10]) was not below 200 µM throughout.

Consider `CC[C@H](C)[C@H](NC(=O)[C@H](C)NC(=O)CNC(=O)[C@H](Cc1ccccc1)NC(=O)[C@H](CC(N)=O)NC(=O)[C@@H]1CCCN1C(=O)[C@H](CO)NC(=O)[C@H](CO)NC(=O)[C@H](Cc1c[nH]cn1)NC(=O)[C@H](CCCNC(=N)N)NC(=O)[C@H](CC(C)C)NC(=O)[C@H](Cc1ccccc1)NC(=O)[C@H](CC(N)=O)NC(=O)[C@H](C)NC(=O)[C@H](CC(C)C)NC(=O)[C@H](CCCNC(=N)N)NC(=O)[C@H](CCC(N)=O)NC(=O)[C@@H](NC(=O)[C@H](C)NC(=O)[C@@H]1CSSC[C@H](NC(=O)[C@H](CCCCN)NC(=O)CC[C@H](NC(=O)CCCCCCCCCCCCCCCCCCC(=O)O)C(=O)O)C(=O)N[C@@H](CC(N)=O)C(=O)N[C@@H]([C@@H](C)O)C(=O)N[C@@H](C)C(=O)N[C@@H]([C@@H](C)O)C(=O)N1)[C@@H](C)O)C(=O)N1CCC[C@H]1C(=O)N[C@@H](CO)C(=O)N[C@@H](CO)C(=O)N[C@H](C(=O)N[C@@H](CC(N)=O)C(=O)N[C@H](C(=O)NCC(=O)N[C@@H](CO)C(=O)N[C@@H](CCC(=O)O)C(=O)N[C@H](C(=O)N[C@@H](Cc1ccc(O)cc1)C(N)=O)[C@@H](C)O)C(C)C)[C@@H](C)O` [Example 23], for which the “ThT pH 4.0 lag time (h)” value in data set [1] was 3 h. Further, the solubility at 18 h in data set [2] (setting [3]), in data set [2] (setting [4]), in data set [2] (setting [5]), in data set [2] (setting [6]), in data set [2] (setting [7]) and in data set [2] (setting [8]) was not below 200 µM each time. For the same compound, the solubility at 18 h in data set [2] (setting [9]) and in data set [2] (setting [10]) was not below 200 µM each time.

Consider `CC[C@H](C)[C@H](NC(=O)[C@H](C)NC(=O)CNC(=O)[C@H](Cc1ccccc1)NC(=O)[C@H](CC(N)=O)NC(=O)[C@@H]1CCCN1C(=O)[C@H](CO)NC(=O)[C@H](CO)NC(=O)[C@H](Cc1c[nH]cn1)NC(=O)[C@H](CCCNC(=N)N)NC(=O)[C@H](CC(C)C)NC(=O)[C@H](Cc1ccccc1)NC(=O)[C@H](CCC(=O)O)NC(=O)[C@H](C)NC(=O)[C@H](CC(C)C)NC(=O)[C@H](CCCNC(=N)N)NC(=O)[C@H](CCC(N)=O)NC(=O)[C@@H](NC(=O)[C@H](C)NC(=O)[C@@H]1CSSC[C@H](NC(=O)[C@H](CCCCN)NC(=O)CC[C@H](NC(=O)CCCCCCCCCCCCCCCCCCC(=O)O)C(=O)O)C(=O)N[C@@H](CC(N)=O)C(=O)N[C@@H]([C@@H](C)O)C(=O)N[C@@H](C)C(=O)N[C@@H]([C@@H](C)O)C(=O)N1)[C@@H](C)O)C(=O)N1CCC[C@H]1C(=O)N[C@@H](CO)C(=O)N[C@@H](CO)C(=O)N[C@H](C(=O)N[C@@H](CC(N)=O)C(=O)N[C@H](C(=O)NCC(=O)N[C@@H](CO)C(=O)N[C@@H](Cc1c[nH]cn1)C(=O)N[C@H](C(=O)N[C@@H](Cc1ccc(O)cc1)C(N)=O)[C@@H](C)O)C(C)C)[C@@H](C)O` [Example 18] ({C20 diacid-γGlu}-KCNTATCATQRLAEFLRHSSPNFGAIPSSTNVGSHTY-NH2; disulfide 2-7), for which the “ThT pH 4.0 lag time (h)” value in data set [1] is 45 h. For the same compound, the solubility at 18 h is not below 200 µM in data set [2] (setting [3]); 122 µM (≈ 539 µg/mL) in data set [2] (setting [4]); not below 200 µM in data set [2] (setting [5]); 177 µM (≈ 782 µg/mL) in data set [2] (setting [6]); 111 µM (≈ 491 µg/mL) in data set [2] (setting [7]); not below 200 µM in data set [2] (setting [8]). For the same compound, the solubility at 18 h in data set [2] (setting [9]) and in data set [2] (setting [10]) was not below 200 µM in each case.
